Measurements published in patent US20150202212A1, “METHODS FOR IDENTIFYING AGENTS FOR TREATING SMOOTH MUSCLE DISORDERS AND COMPOSITIONS THEREOF” (University of Massachusetts Medical School, priority 2012, published 2015).
“Also recorded” adds a separate entry of the source. Read-outs that look alike come from different tables or passages of the source.

Legend:
[1] = system: isolated mouse airway smooth muscle cells; test: Measurement of global [Ca2+]i (fluo-3) in freshly isolated mouse airway smooth muscle cells; type: cell-based; details: for effect on chloroquine-induced reversal of the KCl-induced increase in [Ca2+]i: PTX 1 μg/ml 6-8 hours, gallein 20 μM, Anti-βγ 1 μM, U73122, 2-ABP at concentrations of FIG. 5; for chloroquine-induced increase in global [Ca2+]i, % of control: resting cells, PTX 1 μg/ml 6-8 hr, gallein 20 μM 30 min, Anti-βγ 1 μM 1 hr, U73122 3 μM, 2-APB 50 μM; for effect on chloroquine's reduction of the Mch-induced [Ca2+]i increase: 10 μM FPL, single cell level
Protocol: (§1) The tracheas and bronchi were dissected free from the surface of the connective tissue. The tissue was incubated in the dissociation medium containing papain 30 unit/ml, 1 mM DTT, and 0.5 mg/ml BSA, at 35° C. for 30 min, and then transferred to a dissociation medium containing 3 unit/ml collagenase F and 0.5 mg/mL BSA, and incubated at 35° C. for another 15 min to produce isolated ASM cells. Finally, the tissue was agitated with a fire polished wide-bore glass pipette to release the cells.
Fluorescence images using fluo-3 as a calcium indicator were obtained using a custom-built wide-field digital imaging system. The camera was interfaced to a custom made inverted microscope, and the cells were imaged using either a 20× Nikon 1.3 NA for global [Ca^2+] measurement or a 60× Nikon 1.4 NA oil for Ca^2+ spark measurement. […] The images were acquired at the speed of either 1 Hz for global [Ca^2+] measurement or 50 Hz for Ca^2+ spark measurement. Subsequent image processing and analysis was performed off line using a custom-designed software package, running on a Linux/PC workstation. [Ca^2+]i was represented as ΔF/F0*100 with F calculated by integrating fluo-3 over entire cells for global [Ca^2+], or just the value at the brightest pixel (i.e., epicenter pixel) for Ca^2+ sparks.
All chemicals, except fluo-3 (Invitrogen Co, San Diego, Calif., USA), gallein (Tocris Bioscience, Bristol, United Kingdom), and Anti-βγ blocking peptide (AnaSpec, Fremont, Calif., USA), were purchased from Sigma-Aldrich Co. (St. Louis, Mo., USA). For single cell studies, agonists and antagonists were applied locally to cells via a picospritzer at a constant pressure, so that the duration of its action and concentration could be controlled easily.

[2] = system: mouse airways (trachea and bronchi rings); test: Mouse airway smooth muscle contraction bioassay (isometric tension); details: for relaxation of smooth muscle from airways: mouse; for reversal (relaxation) of KCl-induced tension: 60 mM KCl, chloroquine, denatonium 1 mM
Description: C57/BL6 mice at 7-12 weeks of age were sacrificed and the entire respiratory trees were rapidly removed and immersed in Krebs physiologic solution containing (in mM) 118.07 NaCl, 4.69 KCl, 2.52 CaCl2, 1.16 MgSO4, 1.01 NaH2PO4, 25 NaHCO3, and 11.10 glucose. Trachea and bronchi were isolated and cut into rings (4 mm in length). The rings were mounted on a wire myograph chamber (Danish Myo Technology, Aarhus, Denmark), and a PowerLab recording device (AD Instruments) was used to record isometric tension. The ring preparations with zero tension were immersed in 5 ml of Krebs physiologic solution, bubbled with 95% 02 and 5% CO2 at 37° C. The basal tones were set at the level of approximately 2 mN.

Mouse ASM cells = test: Measurement of cell shortening in mouse ASM cells; type: cell-based; details: Mch 100 μM; n=21
Protocol: as §1, with “the cells. Myocytes were placed into a recording chamber superfused with the bath solution for patch clamp experiments at room temperature. Cells loaded with Fluo-3 were imaged using a custom-built wide-field digital imaging system and their lengths were determined using custom software to manually trace down the center of the cell.” for “the cells.”

[3] = system: human intrapulmonary bronchi; test: Force measurement in human intrapulmonary airways; details: for relaxation of smooth muscle from airways: human; for reversal (relaxation) of KCl-induced tension: KCl (60 mM), chloroquine, denatonium 1 mM
Description: Trachea and bronchi were isolated and cut into rings (4 mm in length). The rings were mounted on a wire myograph chamber (Danish Myo Technology, Aarhus, Denmark), and a PowerLab recording device (AD Instruments) was used to record isometric tension. […] Human lung tissue was obtained (with informed consent) from patients undergoing surgery (lobectomy) for lung cancer at the Department of Surgery and the Department of Pathology at the Univ. of Massachusetts Memorial Med Ctr (Worcester, Mass.). The tumors were identified as nonsmall cell carcinoma (adenocarcinoma, squamous cell carcinoma). Intrapulmonary airways were dissected out and cleaned free of the connective tissues. These airways were either cut into the rings ([…]) for force measurements the same as for mouse airway tissues, or digested with the same enzymes, dissociation medium and isolation procedure as for single mouse ASM cells. The experimental protocols on human tissues were approved by the Committee for Protection of Human Subjects in Research at the University of Massachusetts Medical School (Protocol 13590 to R.Z).

human pulmonary arteries = test: Relaxation of human pulmonary arteries pre-contracted by KCl; details: for relaxation of smooth muscle from pulmonary artery: human; for relaxation of human pulmonary arteries: pre-contracted by KCl
Description: Human specimen were provided by Univ. Mass. Memorial Medical Center.

[4] = system: mouse internal anal sphincter; test: Spontaneous tone of mouse internal anal sphincter; details: for relaxation of smooth muscle from internal anal sphincter: mouse
Description: The spontaneous tone contributes about 70% of the basal tonus that maintains fecal continence in human and animals.

mouse urethra = test: Mouse urethral contraction induced by contractile agonists; details: for relaxation of smooth muscle from urethra: mouse
Description: […] were pretreated with bitter tastants, and then stimulated with contractile agonists. Contractile agonists alone were used as the control.

[5] = system: isolated smooth muscle cells from mouse internal anal sphincter; test: [Ca2+]i in isolated smooth muscle cells from mouse internal anal sphincter; type: cell-based; details: CDCA 100 μM; chloroquine 1 mM; denatonium 1 mM
Description: Fluorescence images using fluo-3 as a calcium indicator were obtained using a custom-built wide-field digital imaging system. The camera was interfaced to a custom made inverted microscope, and the cells were imaged using either a 20× Nikon 1.3 NA for global [Ca^2+] measurement or a 60× Nikon 1.4 NA oil for Ca^2+ spark measurement. The 488 nm line of an Argon Ion laser provided fluorescence excitation, with a shutter to control exposure duration, and emission of the Ca^2+ indicator was monitored at wavelengths >500 nm. The images were acquired at the speed of either 1 Hz for global [Ca^2+] measurement or 50 Hz for Ca^2+ spark measurement. Subsequent image processing and analysis was performed off line using a custom-designed software package, running on a Linux/PC workstation. [Ca^2+]i was represented as ΔF/F0*100 with F calculated by integrating fluo-3 over entire cells for global [Ca^2+], or just the value at the brightest pixel (i.e., epicenter pixel) for Ca^2+ sparks.

[6] = system: pulmonary artery from mouse; test: Relaxation of smooth muscle from mouse pulmonary artery
mouse airway strips = details: all at 1 mM; [Ca2+]i clamped; α-toxin permeabilized
[7] = pretreatment, Chloro 1 mM, CDCA 100 μM

Question: For “MPS-phosducin-like protein C terminus [Anti-βγ]”, which “effect on chloroquine-induced reversal of the KCl-induced increase in [Ca2+]i” value (“effect … of the KCl-induced increase in [Ca2+]i” for short) [1] is on record?
Answer: prevented

Question: And the “chloroquine-induced increase in global [Ca2+]i, % of control” value [1]?
Answer: 18.4±4.8%

Question: Which results are given for `COC(=O)c1c(C)[nH]c(C)c1C(=O)c1ccccc1Cc1ccccc1` [FPL, FPL 64176]?
Answer: effect on chloroquine's reduction of [Ca2+]i in cells stimulated by KCl [1]: prevented; effect on chloroquine's reduction of the Mch-induced [Ca2+]i increase [1]: prevent chloroquine from reducing; effect on chloroquine's reduction of the Mch-induced [Ca2+]i increase ([1]; listed as FPL 64176): prevented chloro from reversing; effect on chloroquine's reduction of [Ca2+]i in cells stimulated by KCl ([1]; listed as FPL 64176): inhibited; effect on chloroquine-induced relaxation in ASM pre-contracted by KCl ([2]; KCl 60 mM): dose-dependently reversed; also recorded: dose-dependently inhibited; effect on chloroquine-induced relaxation of Mch precontracted airways ([2]; tissue level): prevent chloroquine from relaxing; also recorded: dose-dependently reversed

Question: Which “effect … of the KCl-induced increase in [Ca2+]i” value [1] does the source give for `O=C1OC2(c3ccccc31)c1ccc(O)c(O)c1Oc1c2ccc(O)c1O` [gallein] here?
Answer: prevented

Question: And the “chloroquine-induced increase in global [Ca2+]i, % of control” value [1]?
Answer: 19.9±8.5%

Question: Which results are given for `CC(=O)OC(C)C[N+](C)(C)C` (stereo not shown) [Mch, methacholine]?
Answer: increase in fluo-3 fluorescence (ΔF/F0) ([1]; Mch 100 μM): 162±26%; contraction (tension) of mouse airways at rest ([2]; 1 mM chloro, 100 μM Mch): robust contraction; tension generated in Ca2+ free medium, % of that in the presence of extracellular Ca2+ ([2]; Ca2+ free medium): less than 20%; contraction (force) of mouse airways at rest ([2]; chloroquine 10 μM-1 mM, Mch 0.1-10 μM): induced contraction markedly; cell shortening (Mouse ASM cells): 49±8%

Question: Which “KCl-induced increase in ΔF/F0” value ([1]; KCl 60 mM, without diltiazem, n=9) does the source give for `[Cl-].[K+]` [KCl] here?
Answer: 122±19%

Question: How did the “relaxation of smooth muscle from airways” value [2] turn out when `C[C@H](CCC(=O)O)[C@H]1CC[C@H]2[C@@H]3[C@H](O)C[C@@H]4C[C@H](O)CC[C@]4(C)[C@H]3CC[C@]12C` [CDCA, chenodeoxycholic acid] was run?
Answer: fully relax

Question: And the “relaxation of smooth muscle from airways” value [3]?
Answer: fully relax

Question: And the “relaxation of smooth muscle from pulmonary artery” value (“relaxation … from pulmonary artery” for short) (human pulmonary arteries)?
Answer: fully relax

Question: And the “effect on spontaneous tone” value [4]?
Answer: reversed totally

Question: What about the “relaxation of smooth muscle from internal anal sphincter” value [4] of the same compound?
Answer: fully relax

Question: What about the “relaxation of smooth muscle from urethra” value (mouse urethra) of the same compound?
Answer: fully relax

Question: What about the “effect on 10 μM methacholine-induced contraction” value (mouse urethra; pretreatment, CDCA 100 μM) of the same compound?
Answer: inhibited

Question: And the “effect on 60 mM KCl-induced contraction” value (mouse urethra; [7])?
Answer: blocked

Question: What about the “effect on alpha1-agonist phenylephrine-induced contraction” value (mouse urethra; [7]) of the same compound?
Answer: inhibited

Question: What about the “effect on the increase in [Ca2+]i induced by 60 mM KCl” value [5] of the same compound?
Answer: reversibly inhibited

Question: What about the “relaxation … from pulmonary artery” value [6] of the same compound?
Answer: fully relax

Question: Which “reversal (relaxation) of KCl-induced tension” value (“reversal (relaxation)” for short) ([2]; mouse airways) does the source give for `CC[N+](CC)(CC(=O)Nc1c(C)cccc1C)Cc1ccccc1` [denatonium] here?
Answer: fully reversed; also recorded: relaxed

Question: And the “reversal (relaxation)” value ([3]; human airways)?
Answer: fully reversed

Question: And the “relaxation of human pulmonary arteries” value (human pulmonary arteries)?
Answer: failed to exert any effect

Question: What about the “effect on spontaneous tone” value [4] of the same compound?
Answer: enhanced

Question: And the “effect on the increase in [Ca2+]i induced by 60 mM KCl” value [5]?
Answer: did not affect

Question: And the “relaxation of ASM at fixed [Ca2+]i” value (mouse airway strips)?
Answer: failed to relax

Question: Which “KCl-induced increase in ΔF/F0 after diltiazem pretreatment” value ([1]; 10 μM diltiazem pretreatment, KCl 60 mM, n=9) does the source give for `COc1ccc([C@@H]2Sc3ccccc3N(CCN(C)C)C(=O)[C@@H]2OC(C)=O)cc1` [diltiazem] here?
Answer: 16.8±10%

Question: And the “effect on KCl (60 mM)-induced increase in [Ca2+]i” value ([1]; prior application of diltiazem 100 μM)?
Answer: blocked

Question: And the “reversal of the Mch-induced increase in [Ca2+]” value ([1]; single isolated mouse ASM cells, n=12)?
Answer: 90.2±2.9%

Question: And the “reversal of the KCl-induced contraction” value ([2]; KCl 60 mM, n=6)?
Answer: 93.1±4.8%

Question: What about the “reversal of Mch-induced airway force generation” value ([2]; mouse airways) of the same compound?
Answer: dose-dependently reversed

Question: And the “reversal (relaxation)” value ([2]; mouse airways)?
Answer: relaxed

Question: And the “reversal of Mch-induced airway force generation” value ([3]; human airways, 10 μM Mch)?
Answer: dose-dependently reversed

Question: And the “reversal (relaxation)” value ([3]; human airways)?
Answer: relaxed

Question: For `COc1ccc2c(c1)CC[C@@H]1[C@@H]2CC[C@]2(C)[C@@H](NCCCCCCN3C(=O)C=CC3=O)CC[C@@H]12` [U73122], which “effect … of the KCl-induced increase in [Ca2+]i” value [1] is on record?
Answer: failed to alter

Question: What about the “chloroquine-induced increase in global [Ca2+]i, % of control” value [1] of the same compound?
Answer: 18.0±5.5%

Question: What does the source list for `NCCOB(c1ccccc1)c1ccccc1` [2-APB, 2-Aminoethoxydiphenyl borate]?
Answer: effect on chloroquine-induced reversal of the KCl-induced increase in [Ca2+]i [1]: failed to alter; chloroquine-induced increase in global [Ca2+]i, % of control [1]: −10.5±7.3%

Question: With `C[C@H](CCC(=O)O)[C@H]1CC[C@H]2[C@@H]3CC[C@@H]4C[C@H](O)CC[C@]4(C)[C@H]3C[C@H](O)[C@]12C` [DCA, deoxycholic acid] as the compound, how does the “relaxation of smooth muscle from airways” value [2] read?
Answer: fully relax

Question: And the “relaxation of smooth muscle from airways” value [3]?
Answer: fully relax

Question: What about the “reversal (relaxation)” value ([3]; human airways) of the same compound?
Answer: fully relaxed

Question: What about the “relaxation … from pulmonary artery” value (human pulmonary arteries) of the same compound?
Answer: fully relax

Question: What about the “relaxation of human pulmonary arteries” value (human pulmonary arteries) of the same compound?
Answer: markedly relaxed

Question: And the “relaxation of smooth muscle from internal anal sphincter” value [4]?
Answer: fully relax

Question: What about the “relaxation of smooth muscle from urethra” value (mouse urethra) of the same compound?
Answer: fully relax

Question: What about the “relaxation … from pulmonary artery” value [6] of the same compound?
Answer: fully relax

Question: For pertussis toxin [PTX], which “effect … of the KCl-induced increase in [Ca2+]i” value [1] is on record?
Answer: prevented

Question: What about the “chloroquine-induced increase in global [Ca2+]i, % of control” value [1] of the same compound?
Answer: 21.1±8.6%
